# In US7071178B2, “Use of vitamin D-derivatives in the treatment of osteoporosis and related bone disorders, as well as novel vitamin D3-derivatives” (Leo Pharmaceutical Products, Ltd., priority 2000, dated 2006):
# Key:
# OVX rats [1] = assay: OVX rat model on osteoporosis: urine calcium; type: in vivo; set-up: key to Effect on urine calcium vs 1,25D3: <: less effect than the reference dose of 1,25D3 (0.25 ug/kg); <=: less or the same effect as the reference dose of 1,25D3 (0.25 ug/kg); =: same effect as the reference dose of 1,25D3 (0.25 ug/kg); =>: same or better effect as the reference dose of 1,25D3 (0.25 ug/kg); >: better effect than the reference dose of 1,25D3 (0.25 ug/kg); details: oral 28 days
# Description: (§1) Pharmacological Methods—OVX Rat Model on Osteoporosis
# (§2) To study bone anabolic properties and the effects of the vitamin D analogues of the present invention in preventing or treating demineralisation of the skeleton in vivo, a 4 weeks OVX rat model was used:
# (§3) An ovariectomized rat model (OVX model), orally dosed for 28 days is useful for screening of vitamin D analogues. In this model ovariectomy produces alterations in the cancellous network identical to those seen in the human skeleton during ageing and the menopause. Besides this the model and the following analyses can be performed under very standardised conditions. 1α,25(OH)2D3 is used as a reference compound.
# (§4) Female Sprague Dawley rats weighing approximately 130 g (40–45 days old) were purchased from MB, Ejby, Denmark. The animals were fed a commercial diet and allowed free access to food and drinking water. The animals were split into groups receiving differential treatment.
# (§5) The animals were anaesthetised and ovariectomized through a dorsal incision.
# (§6) Treatment of OVX animals was started 2 weeks after ovariectomy.
# (§7) The animals were dosed orally for 28 days. The oral dosage was by gavage 0.1 ml/100 g bodyweight. The bodyweight of each animal was recorded every day prior to oral dosing. On day 7, 14, 21 and 28 the animals were housed separately for 24 hours in metabolic cages for collection of urine. Urine was frozen at −20° C. for later calcium measurement.
# (§8) Effect of Compound 145 compared to the reference dose of 1,25(OH)2D3 (1,25D3) (0.25 μg/kg) and compared to the OVX control group (shown in %) are shown in Tables 1 to 4.
# OVX rats [2] = assay: OVX rat model on osteoporosis: boneweight; type: in vivo; set-up: key to Anabolic effect on boneweight, Tibia, vs 1,25D3 / Anabolic effect on boneweight, Tibial Meta., vs 1,25D3 / Anabolic effect on boneweight, L4, vs 1,25D3 / Anabolic effect on boneweight, Femur, vs 1,25D3: <: less effect than the reference dose of 1,25D3 (0.25 ug/kg); <=: less or the same effect as the reference dose of 1,25D3 (0.25 ug/kg); =: same effect as the reference dose of 1,25D3 (0.25 ug/kg); =>: same or better effect as the reference dose of 1,25D3 (0.25 ug/kg); >: better effect than the reference dose of 1,25D3 (0.25 ug/kg); details: for Anabolic effect on boneweight, Femur, vs 1,25D3 / Anabolic effect on boneweight, Femur, vs Ovx contr / Anabolic effect on boneweight, L4, vs 1,25D3 / Anabolic effect on boneweight, L4, vs Ovx contr / Anabolic effect on boneweight, Tibia, vs 1,25D3 / Anabolic effect on boneweight, Tibia, vs Ovx contr / Anabolic effect on boneweight, Tibial Meta., vs 1,25D3 / Anabolic effect on boneweight, Tibial Meta., vs Ovx contr: oral 28 days
# Description: FIG. 1 is a graphic illustration of the effect on the weight of the lumbal vertebrae, L4, in rats according to the OVX rat model described herein, and wherein the animal groups received treatment according to the scheme below. A statistical analysis is shown below the graphic illustration. Differences between groups were investigated by the Kruskal-Wallis test, including a multiple comparison procedure: ns represents non-significant, nt represents not tested, and * represents p<0.05. Differences were considered significant at a p<0.05. Results are presented in the bar diagram as means+SD.
# The animals were divided into 6 groups: • Group 1: Intact control, dosed Propylene glycol 0.1 ml/kg (Vehicle) • Group 2: OVX rats control, dosed Propylene glycol 0.1 ml/kg (Vehicle) • Group 3: OVX rats, dosed 1α,25(OH)2D3, […], dosed Compound 145, […]
# as §1, §2, §3, §4, §5, §6, §7
# Left and right femur, left and right tibia, lumbal vertebrae 3 and 4 (L3 and L4) were removed and cleaned for all soft- and connecting tissue. Left femur, left and right tibia and L4 were dried in an oven at 50–60° C. for at least 24 hours and immediately hereafter weighed. The bones were burned in an oven at 800° C. for 4 hours, dissolved in 1N HCl, and analysed for calcium content in a Hitachi 911 autoanalyser. Right femur and L3 were kept in 0.9% NaCl and frozen at −20° C. for later biomechanical testing performed by Jesper Skovhus Thomsen and Lis Mosekilde at Aarhus University, measuring various biomechanical parameters.
# as §8
smiles,measurement,setting,value
"C=C1C(=CC=C2CCCC3(C)C2CCC3C(C)CSc2ccc(C(C)(C)O)cc2)CC(O)CC1O [Compound 145, 1(S),3(R)-Dihydroxy-20(R)-(4-((1-hydroxy-1-methyl)ethyl)phenylthiomethyl)-9,10-seco-pregna-5(Z),7(E),10(19)-triene]","Effect on urine calcium vs 1,25D3","OVX rats [1]; 1 μg/kg, MTR/16",No
same,Effect on urine calcium vs Ovx contr,"OVX rats [1]; 1 μg/kg, MTR/16",−23%
same,"Effect on urine calcium vs 1,25D3","OVX rats [1]; 10 μg/kg, MTR/16",<<<
same,Effect on urine calcium vs Ovx contr,"OVX rats [1]; 10 μg/kg, MTR/16",104%
same,"Effect on urine calcium vs 1,25D3","OVX rats [1]; 10 μg/kg, MTR/23",<<<
same,Effect on urine calcium vs Ovx contr,"OVX rats [1]; 10 μg/kg, MTR/23",45%
same,"Effect on urine calcium vs 1,25D3","OVX rats [1]; 25 μg/kg, MTR/27",<<
same,Effect on urine calcium vs Ovx contr,"OVX rats [1]; 25 μg/kg, MTR/27",155%
same,"Effect on urine calcium vs 1,25D3","OVX rats [1]; 50 μg/kg, MTR/23",<=
same,Effect on urine calcium vs Ovx contr,"OVX rats [1]; 50 μg/kg, MTR/23",373%
same,"Effect on urine calcium vs 1,25D3","OVX rats [1]; 50 μg/kg, MTR/27",=
same,Effect on urine calcium vs Ovx contr,"OVX rats [1]; 50 μg/kg, MTR/27",750%
same,"Effect on urine calcium vs 1,25D3","OVX rats [1]; 75 μg/kg, MTR/27",>=
same,Effect on urine calcium vs Ovx contr,"OVX rats [1]; 75 μg/kg, MTR/27",777%
same,"Effect on urine calcium vs 1,25D3","OVX rats [1]; 100 μg/kg, MTR/23",<=
same,Effect on urine calcium vs Ovx contr,"OVX rats [1]; 100 μg/kg, MTR/23",463%
same,"Anabolic effect on boneweight, Femur, vs 1,25D3","OVX rats [2]; 1 μg/kg, MTR/16",<=
same,"Anabolic effect on boneweight, Femur, vs Ovx contr","OVX rats [2]; 1 μg/kg, MTR/16",6%
same,"Anabolic effect on boneweight, L4, vs 1,25D3","OVX rats [2]; 1 μg/kg, MTR/16",<=
same,"Anabolic effect on boneweight, L4, vs Ovx contr","OVX rats [2]; 1 μg/kg, MTR/16",9%
same,"Anabolic effect on boneweight, Tibia, vs 1,25D3","OVX rats [2]; 1 μg/kg, MTR/16",<=
same,"Anabolic effect on boneweight, Tibia, vs Ovx contr","OVX rats [2]; 1 μg/kg, MTR/16",6%
same,"Anabolic effect on boneweight, Tibial Meta., vs 1,25D3","OVX rats [2]; 1 μg/kg, MTR/16",<
same,"Anabolic effect on boneweight, Tibial Meta., vs Ovx contr","OVX rats [2]; 1 μg/kg, MTR/16",6%
same,"Anabolic effect on boneweight, Femur, vs 1,25D3","OVX rats [2]; 10 μg/kg, MTR/16",>
same,"Anabolic effect on boneweight, Femur, vs Ovx contr","OVX rats [2]; 10 μg/kg, MTR/16",10%
same,"Anabolic effect on boneweight, L4, vs 1,25D3","OVX rats [2]; 10 μg/kg, MTR/16",>
same,"Anabolic effect on boneweight, L4, vs Ovx contr","OVX rats [2]; 10 μg/kg, MTR/16",13%
same,"Anabolic effect on boneweight, Tibia, vs 1,25D3","OVX rats [2]; 10 μg/kg, MTR/16",>
same,"Anabolic effect on boneweight, Tibia, vs Ovx contr","OVX rats [2]; 10 μg/kg, MTR/16",8%
same,"Anabolic effect on boneweight, Tibial Meta., vs 1,25D3","OVX rats [2]; 10 μg/kg, MTR/16",>
same,"Anabolic effect on boneweight, Tibial Meta., vs Ovx contr","OVX rats [2]; 10 μg/kg, MTR/16",14%
same,"Anabolic effect on boneweight, Femur, vs 1,25D3","OVX rats [2]; 10 μg/kg, MTR/23",>=
same,"Anabolic effect on boneweight, Femur, vs Ovx contr","OVX rats [2]; 10 μg/kg, MTR/23",5%
same,"Anabolic effect on boneweight, L4, vs 1,25D3","OVX rats [2]; 10 μg/kg, MTR/23",>=
same,"Anabolic effect on boneweight, L4, vs Ovx contr","OVX rats [2]; 10 μg/kg, MTR/23",4%
same,"Anabolic effect on boneweight, Tibia, vs 1,25D3","OVX rats [2]; 10 μg/kg, MTR/23",>=
same,"Anabolic effect on boneweight, Tibia, vs Ovx contr","OVX rats [2]; 10 μg/kg, MTR/23",5%
same,"Anabolic effect on boneweight, Tibial Meta., vs 1,25D3","OVX rats [2]; 10 μg/kg, MTR/23",<
same,"Anabolic effect on boneweight, Tibial Meta., vs Ovx contr","OVX rats [2]; 10 μg/kg, MTR/23",8%
same,"Anabolic effect on boneweight, Femur, vs 1,25D3","OVX rats [2]; 25 μg/kg, MTR/27",>
same,"Anabolic effect on boneweight, Femur, vs Ovx contr","OVX rats [2]; 25 μg/kg, MTR/27",4%
same,"Anabolic effect on boneweight, L4, vs 1,25D3","OVX rats [2]; 25 μg/kg, MTR/27",>
same,"Anabolic effect on boneweight, L4, vs Ovx contr","OVX rats [2]; 25 μg/kg, MTR/27",9%
same,"Anabolic effect on boneweight, Tibia, vs 1,25D3","OVX rats [2]; 25 μg/kg, MTR/27",>
same,"Anabolic effect on boneweight, Tibia, vs Ovx contr","OVX rats [2]; 25 μg/kg, MTR/27",3%
same,"Anabolic effect on boneweight, Tibial Meta., vs 1,25D3","OVX rats [2]; 25 μg/kg, MTR/27",>
same,"Anabolic effect on boneweight, Tibial Meta., vs Ovx contr","OVX rats [2]; 25 μg/kg, MTR/27",−2%
same,"Anabolic effect on boneweight, Femur, vs 1,25D3","OVX rats [2]; 50 μg/kg, MTR/23",>>
same,"Anabolic effect on boneweight, Femur, vs Ovx contr","OVX rats [2]; 50 μg/kg, MTR/23",14%
same,"Anabolic effect on boneweight, L4, vs 1,25D3","OVX rats [2]; 50 μg/kg, MTR/23",>>
same,"Anabolic effect on boneweight, L4, vs Ovx contr","OVX rats [2]; 50 μg/kg, MTR/23",15%
same,"Anabolic effect on boneweight, Tibia, vs 1,25D3","OVX rats [2]; 50 μg/kg, MTR/23",>>
same,"Anabolic effect on boneweight, Tibia, vs Ovx contr","OVX rats [2]; 50 μg/kg, MTR/23",13%
same,"Anabolic effect on boneweight, Tibial Meta., vs 1,25D3","OVX rats [2]; 50 μg/kg, MTR/23",=
same,"Anabolic effect on boneweight, Tibial Meta., vs Ovx contr","OVX rats [2]; 50 μg/kg, MTR/23",22%
same,"Anabolic effect on boneweight, Femur, vs 1,25D3","OVX rats [2]; 50 μg/kg, MTR/27",>
same,"Anabolic effect on boneweight, Femur, vs Ovx contr","OVX rats [2]; 50 μg/kg, MTR/27",6%
same,"Anabolic effect on boneweight, L4, vs 1,25D3","OVX rats [2]; 50 μg/kg, MTR/27",>
same,"Anabolic effect on boneweight, L4, vs Ovx contr","OVX rats [2]; 50 μg/kg, MTR/27",11%
same,"Anabolic effect on boneweight, Tibia, vs 1,25D3","OVX rats [2]; 50 μg/kg, MTR/27",>
same,"Anabolic effect on boneweight, Tibia, vs Ovx contr","OVX rats [2]; 50 μg/kg, MTR/27",4%
same,"Anabolic effect on boneweight, Tibial Meta., vs 1,25D3","OVX rats [2]; 50 μg/kg, MTR/27",>
same,"Anabolic effect on boneweight, Tibial Meta., vs Ovx contr","OVX rats [2]; 50 μg/kg, MTR/27",−1%
same,"Anabolic effect on boneweight, Femur, vs 1,25D3","OVX rats [2]; 75 μg/kg, MTR/27",>
same,"Anabolic effect on boneweight, Femur, vs Ovx contr","OVX rats [2]; 75 μg/kg, MTR/27",8%
same,"Anabolic effect on boneweight, L4, vs 1,25D3","OVX rats [2]; 75 μg/kg, MTR/27",>
same,"Anabolic effect on boneweight, L4, vs Ovx contr","OVX rats [2]; 75 μg/kg, MTR/27",13%
same,"Anabolic effect on boneweight, Tibia, vs 1,25D3","OVX rats [2]; 75 μg/kg, MTR/27",>
same,"Anabolic effect on boneweight, Tibia, vs Ovx contr","OVX rats [2]; 75 μg/kg, MTR/27",7%
same,"Anabolic effect on boneweight, Tibial Meta., vs 1,25D3","OVX rats [2]; 75 μg/kg, MTR/27",>>
same,"Anabolic effect on boneweight, Tibial Meta., vs Ovx contr","OVX rats [2]; 75 μg/kg, MTR/27",9%
same,"Anabolic effect on boneweight, Femur, vs 1,25D3","OVX rats [2]; 100 μg/kg, MTR/23",>
same,"Anabolic effect on boneweight, Femur, vs Ovx contr","OVX rats [2]; 100 μg/kg, MTR/23",9%
same,"Anabolic effect on boneweight, L4, vs 1,25D3","OVX rats [2]; 100 μg/kg, MTR/23",>
same,"Anabolic effect on boneweight, L4, vs Ovx contr","OVX rats [2]; 100 μg/kg, MTR/23",12%
same,"Anabolic effect on boneweight, Tibia, vs 1,25D3","OVX rats [2]; 100 μg/kg, MTR/23",>
same,"Anabolic effect on boneweight, Tibia, vs Ovx contr","OVX rats [2]; 100 μg/kg, MTR/23",7%
same,"Anabolic effect on boneweight, Tibial Meta., vs 1,25D3","OVX rats [2]; 100 μg/kg, MTR/23",=
same,"Anabolic effect on boneweight, Tibial Meta., vs Ovx contr","OVX rats [2]; 100 μg/kg, MTR/23",24%
same,"bone anabolic effects (boneweight, biomechanical strength) compared to 1,25D3","OVX rats [2]; summary of Tables 1 to 4, FIG. 1 and FIG. 2","comparable to or even better than 1,25D3"
